The results in this text go back to patent US10266497B2 (ABIDE THERAPEUTICS, INC., priority 2017, dated 2019).

The target in assay [1] is T1, MAGL (Homo sapiens, UniProt Q99685).
T1 sequence (Q99685 1-303): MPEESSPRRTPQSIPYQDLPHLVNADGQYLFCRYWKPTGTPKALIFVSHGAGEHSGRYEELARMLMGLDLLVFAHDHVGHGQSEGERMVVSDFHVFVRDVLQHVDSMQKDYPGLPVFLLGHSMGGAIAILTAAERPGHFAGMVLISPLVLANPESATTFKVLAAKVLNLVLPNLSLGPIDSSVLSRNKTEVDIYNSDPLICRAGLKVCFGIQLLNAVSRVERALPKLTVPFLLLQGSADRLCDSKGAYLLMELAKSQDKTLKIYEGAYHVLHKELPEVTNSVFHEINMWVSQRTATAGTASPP
The assay can be described thus: In vitro competitive activity-based protein profiling, MAGL, human. To be noted: read-out: MAGL % inh. 1 μM (human).

Assay [2] concerns the target T2, MAGL (Mus musculus, UniProt O35678).
T2 sequence (O35678 1-303): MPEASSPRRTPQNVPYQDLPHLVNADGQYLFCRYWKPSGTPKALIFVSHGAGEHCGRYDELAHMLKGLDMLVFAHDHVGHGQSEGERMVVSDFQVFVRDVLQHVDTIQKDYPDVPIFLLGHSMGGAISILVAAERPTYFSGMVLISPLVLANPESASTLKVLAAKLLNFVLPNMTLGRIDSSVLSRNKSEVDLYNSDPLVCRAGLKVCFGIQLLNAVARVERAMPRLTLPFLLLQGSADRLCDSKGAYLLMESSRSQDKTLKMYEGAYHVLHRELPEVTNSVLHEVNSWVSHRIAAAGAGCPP
The assay can be described thus: In vitro competitive activity-based protein profiling, MAGL, mouse. To be noted: read-out: MAGL % inh. 1 μM (mouse).

With `Cc1cn(C(=O)N2CCN(Cc3cc(F)cc(Oc4ccc(Cl)cc4)c3)CC2)nc1C(=O)O` [Example 346, 1-(4-(3-(4-chlorophenoxy)-5-fluorobenzyl)piper-azine-1-carbonyl)-4-methyl-1H-pyrazole-3-carboxylic acid], the inhibition at 1 µM at MAGL [1] and at MAGL [2] was greater than 75% in each case.
For `O=C(O)c1ccn(C(=O)N2CCC3(CCN(Cc4ccc(Cl)c(N5CCOCC5)c4)C3)CC2)n1` [Example 372, 1-(2-(4-chloro-3-morpholinobenzyl)-2,8-diazaspiro[4.5]decane-8-carbonyl)-1H-pyrazole-3-carboxylic acid], the inhibition at 1 µM at MAGL [1] lay within 0 to 25%; at MAGL [2], 25 to 50%.
The like results for `O=C(O)c1ccn(C(=O)N2C[C@H]3C[C@H](Oc4ccc(-c5ccccc5)cc4)C[C@H]3C2)n1` [Example 240, 1-(trans-5-([1,1′-biphenyl]-4-yloxy)octahydro-cyclopenta[c]pyrrole-2-carbonyl)-1H-pyrazole-3-carboxylic acid] were, in that order, greater than 75% and greater than 75%.
As to `C[C@H]1CN(Cc2cc(Cl)cc(C(F)(F)F)c2)CCN1C(=O)n1ccc(C(N)=O)n1` [Example 271, (S)-1-(4-(3-chloro-5-(trifluoromethyl)benzyl)-2-methylpiperazine-1-carbonyl)-1H-pyrazole-3-carboxamide], the inhibition at 1 µM at MAGL [1] and at MAGL [2] was greater than 75% throughout.
Take `C[C@@H]1CN(Cc2cc(Cl)cc(C(F)(F)F)c2)CCN1C(=O)n1ccc(C(N)=O)n1` [Example 272, (R)-1-(4-(3-chloro-5-(trifluoromethyl)benzyl)-2-methylpiperazine-1-carbonyl)-1H-pyrazole-3-carboxamide]: the inhibition at 1 µM on MAGL [1] and at MAGL [2] was greater than 75% in each case.
As for `O=C(O)c1ccn(C(=O)N2CCC3(CCN(Cc4cccc(Oc5ccccn5)c4)C3)CC2)n1` [Example 324, 1-(2-(3-(pyridin-2-yloxy)benzyl)-2,8-diazaspiro[4.5]decane-8-carbonyl)-1H-pyrazole-3-carboxylic acid], the results for the inhibition at 1 µM on MAGL [1] and on MAGL [2] were 25 to 50% and 0 to 25%, respectively.
The like results for `O=C(O)c1ccn(C(=O)N2CCC3(CCN(Cc4cc(Cl)ccc4C(F)(F)F)CC3)CC2)n1` [Example 217, 1-(9-(5-chloro-2-(trifluoromethyl)benzyl)-3,9-diazaspiro[5.5]undecane-3-carbonyl)-1H-pyrazole-3-carboxylic acid] were, in that order, greater than 75% and greater than 75%.
For `O=C(O)c1nn(C(=O)N2CCN(Cc3cccc(Oc4cc(C(F)(F)F)ccn4)c3)CC2)cc1C(F)(F)F` [Example 414, 4-(trifluoromethyl)-1-(4-(3-((4-(trifluoromethyl)pyridin-2-yl)oxy)benzyl)piper-azine-1-carbonyl)-1H-pyrazole-3-carboxylic acid], in that order: greater than 75% and greater than 75%.
For `Cc1cn(C(=O)N2CCC(C)(N(C)Cc3ccc(C(F)(F)F)cc3N3CCCC3)CC2)nc1C(=O)O` [Example 398], in that order: greater than 75% and greater than 75%.
As for `O=C(O)c1ccn(C(=O)N2CCC3(CCCN3Cc3ccc(C(F)(F)F)cc3N3CCN4CCC[C@@H]4C3)CC2)n1` [Example 417, (R)-1-(1-(2-(hexahydropyrrolo[1,2-a]pyrazin-2(1H)-yl)-4-(trifluoromethyl)benzyl)-1,8-diazaspiro[4.5]decane-8-carbonyl)-1H-pyrazole-3-carboxylic acid], the inhibition at 1 µM at MAGL [1] was in the range of 25 to 50%; at MAGL [2], 0 to 25%.
The like results for `O=C(O)c1ccn(C(=O)N2CCC3(CCCN3Cc3ccc(C(F)(F)F)cc3N3CCN4CCC[C@H]4C3)CC2)n1` [Example 418, (S)-1-(1-(2-(hexahydropyrrolo[1,2-a]pyrazin-2(1H)-yl)-4-(trifluoromethyl)benzyl)-1,8-diazaspiro[4.5]decane-8-carbonyl)-1H-pyrazole-3-carboxylic acid] were, in that order, 25 to 50% and 0 to 25%.
`O=C(O)c1ccn(C(=O)N2C[C@H]3C[C@H](OCc4cccc(C5CCCC5)c4)C[C@H]3C2)n1` [Example 34, 1-(trans-5-((3-Cyclopentylbenzyl)oxy)octahydrocyclopenta[c]pyrrole-2-carbonyl)-1H-pyrazole-3-carboxylic Acid]: the inhibition at 1 µM on MAGL [1] and at MAGL [2] was greater than 75% each time.
In the case of `Cc1c(CO[C@@H]2C[C@@H]3CN(C(=O)n4ccc(C(=O)O)n4)C[C@@H]3C2)cccc1C(F)(F)F` [Example 289, 1-(cis-5-((2-methyl-3-(trifluoromethyl)benzyl)oxy)octa-hydrocyclopenta[c]pyrrole-2-carbonyl)-1H-pyrazole-3-carboxylic acid], the inhibition at 1 µM on MAGL [1] and at MAGL [2] was greater than 75% each time.
In the case of `O=C(O)c1ccn(C(=O)N2CCN(Cc3cccc(Oc4cnccc4C(F)(F)F)c3)CC2)n1` [Example 352, 1-(4-(3-((4-(trifluoromethyl)pyridin-3-yl)oxy)benzyl)piper-azine-1-carbonyl)-1H-pyrazole-3-carboxylic acid], the inhibition at 1 µM at MAGL [1] and on MAGL [2] was greater than 75% in each case.
With `C[C@H]1CN(Cc2ccc(C(F)(F)F)cc2N2CCCC2)CCN1C(=O)n1ccc(C(N)=O)n1` [Example 326, (S)-1-(2-methyl-4-(2-(pyrrolidin-1-yl)-4-(trifluoromethyl)benzyl)piperazine-1-carbonyl)-1H-pyrazole-3-carboxamide], the inhibition at 1 µM on MAGL [1] and at MAGL [2] was greater than 75% in each case.
On to `CC(C)(O)COc1cccc(CN2CCN(C(=O)n3ccc(C(N)=O)n3)CC2)c1Cl` [Example 37, 1-(4-(2-Chloro-3-(2-hydroxy-2-methylpropoxy)benzyl)piperazine-1-carbonyl)-1H-pyrazole-3-carboxamide], for which the inhibition at 1 µM on MAGL [1] and on MAGL [2] was greater than 75% in each case.
Turning to `O=C(O)c1ccn(C(=O)N2CCC(OCc3cc(Cl)ccc3C(F)(F)F)CC2)n1` [Example 277, 1-(4-((5-chloro-2-(trifluoromethyl)benzyl)oxy)piper-idine-1-carbonyl)-1H-pyrazole-3-carboxylic acid], the inhibition at 1 µM on MAGL [1] and at MAGL [2] was greater than 75% in each case.
Turning to `O=C(O)c1ccn(C(=O)N2CCN(Cc3cccc(Oc4ccc(F)cn4)c3)CC2)n1` [Example 266, 1-(4-(3-((5-fluoropyridin-2-yl)oxy)benzyl)piper-azine-1-carbonyl)-1H-pyrazole-3-carboxylic acid], the inhibition at 1 µM on MAGL [1] and at MAGL [2] was greater than 75% throughout.
For `O=C(O)c1ccn(C(=O)N2CCN(Cc3cccc(Oc4cccnn4)c3)CC2)n1` [Example 229, 1-(4-(3-(pyridazin-3-yloxy)benzyl)piper-azine-1-carbonyl)-1H-pyrazole-3-carboxylic acid], the inhibition at 1 µM was in the range of 25 to 50% on MAGL [1] and 0 to 25% at MAGL [2].
The like results for `O=C(O)c1ccn(C(=O)N2CCC(OCc3cc(Cl)cc(Oc4ccc(Cl)cc4)c3)CC2)n1` [Example 27, 1-(4-((3-Chloro-5-(4-chlorophenoxy)benzyl)oxy)piperidine-1-carbonyl)-1H-pyrazole-3-carboxylic Acid] were, in that order, greater than 75% and greater than 75%.
For `Cc1cn(C(=O)N2C[C@H]3C[C@H](OCc4cccc(C(F)(F)F)c4C)C[C@H]3C2)nc1C(=O)O` [Example 306, 4-methyl-1-(trans-5-((2-methyl-3-(trifluoromethyl)benzyl)oxy)octa-hydrocyclopenta[c]pyrrole-2-carbonyl)-1H-pyrazole-3-carboxylic acid], in that order: greater than 75% and greater than 75%.
Regarding `O=C(O)c1ccn(C(=O)N2CCC3(CCN(Cc4cc(N5CCCC5)ccc4C(F)(F)F)C3)CC2)n1` [Example 391, 1-(2-(5-(pyrrolidin-1-yl)-2-(trifluoromethyl)benzyl)-2,8-diazaspiro[4.5]decane-8-carbonyl)-1H-pyrazole-3-carboxylic acid], the inhibition at 1 µM at MAGL [1] and at MAGL [2] was greater than 75% each time.
With `C[C@@H]1CN(Cc2cccc(Oc3ccc(F)cn3)c2)CCN1C(=O)n1ccc(C(=O)O)n1` [Example 295, (R)-1-(4-(3-((5-fluoropyridin-2-yl)oxy)benzyl)-2-methylpiperazine-1-carbonyl)-1H-pyrazole-3-carboxylic acid], the inhibition at 1 µM at MAGL [1] was 50 to 75%; at MAGL [2], greater than 75%.
The like results for `Cc1cn(C(=O)N2CCC3(CCN(Cc4cc(Cl)cc(Cl)c4)C3)CC2)nc1C(=O)O` [Example 316, 1-(2-(3,5-dichlorobenzyl)-2,8-diazaspiro[4.5]decane-8-carbonyl)-4-methyl-1H-pyrazole-3-carboxylic acid] were, in that order, greater than 75% and greater than 75%.
On to `C[C@@H]1CN(Cc2ccc(-c3ccccc3)cc2F)CCN1C(=O)n1ccc(C(=O)O)n1` [Example 253, (R)-1-(4-((3-fluoro-[1,1′-biphenyl]-4-yl)methyl)-2-methylpiperazine-1-carbonyl)-1H-pyrazole-3-carboxylic acid], for which the inhibition at 1 µM at MAGL [1] and on MAGL [2] was greater than 75% in each case.
